Assays:
Format in all cases: cell-based, human
VCaP cells [1] = assay: Time course expression analysis of AR and ERG mRNA and protein in VCaP cells after DHT stimulation; settings: 10 nM DHT
Procedure: (§1) FIG. 1. Androgen stimulates distinct expression and chromatin binding profiles for AR and ERG in prostate cancer cells. Time course expression analysis of AR and ERG (A) mRNA and (B) protein levels in VCaP cells after stimulation with 10 nM DHT at various time points. Error bars represent S.E.M of at least 3 independent repeats. (C) Androgen stimulates AR and ERG binding to chromatin. Hormone depleted VCaP cells were treated with 100 nM DHT for 0, 2, or 18 hrs. Cells were cross-linked with formaldehyde and chromatin was immunoprecipitated with antibodies against AR or ERG. Immunoprecipitated DNA was quantified with qPCR for specific binding sites and a randomly selected genomic location as control (ctrl) region. Error bars represent S.E.M of at least 3 independent experiments.
The human prostate cancer cell line, VCaP (American Type Culture Collection), was maintained in DMEM supplemented with 10% fetal bovine serum (FBS), sodium pyruvate, sodium bicarbonate, and penicillin/streptomycin at 37° C. under 5% CO2. Unless otherwise stated, for experiments requiring DHT (Tokyo Chemical Industry) treatment, VCaP cells were grown for 24 hours prior to stimulation in phenol red free DMEM supplemented with 10% charcoal-dextran stripped fetal bovine serum (CDFBS), sodium pyruvate, sodium bicarbonate, and penicillin/streptomycin.
Cells were harvested and total RNA was collected in TRI-reagent (Sigma) and purified with PureLink™ RNA Mini Kit (Invitrogen). Reverse transcription of RNA to cDNA was carried out using M-MLV reverse transcriptase (Promega). RNA expression levels were measured using quantitative PCR and normalized to GAPDH. The primers for cDNA quantification can be found in FIG. 9.
The antibodies used for western blot analysis include anti-AR (sc-816), anti ERG (sc-354), anti-Vinculin (sc-25336) from Santa Cruz, anti-AR (AR441) from Labvision, anti-HDAC1 (#05-100), anti-HDAC2 (#05-814) from Millipore, anti-HDAC3 (#3949) and anti-EZH2 (#3147) from Cell Signaling Technology.

VCaP cells [2] = assay: AR and ERG ChIP-qPCR in VCaP cells after DHT stimulation; settings: 100 nM DHT
Procedure: as §1
(§2) ChIP assay was performed as described previously (47). Briefly, VCaP cells were fixed with 1% formaldehyde (Sigma-Aldrich) for 10 minutes prior to harvesting. Next, the cells were resuspended in SDS lysis buffer containing protease inhibitors. The lysed cells were then sonicated shearing the chromatin into 500-1000 base pairs in length. After pre-clearing with rabbit IgG (Santa Cruz Biotechnology) for 2 hours, the chromatin was immunoprecipitation overnight with the corresponding antibodies and Sepharose beads A (Zymed). After washing the beads, the captured DNA was eluted and de-crosslinked at 65° C. overnight prior to purification with QIAquick spin PCR purification kit (Qiagen). Real-time quantitative Polymerase Chain Reaction (qPCR) was carried out using the KAPA SYBR FAST qPCR kit (Kapa Biosystems).
All ChIP-qPCR primer sequences can be found in FIG. 8. […] Specifically, cells were first fixed with 2 mM DSG (Pierce) for 45 minutes prior to formaldehyde fixation. Antibodies that were used for ChIP analysis include anti-AR (sc-815x), anti-ERG (sc-353), anti-HDAC3 (sc-11417) from Santa Cruz Biotechnology, anti-HDAC1 (ab7028-50), anti-HDAC2 (ab7029-50) from Abcam, and anti-EZH2 (39933) from Active Motif.

VCaP cells [3] = assay: HDAC1, HDAC2, HDAC3 and EZH2 ChIP-qPCR in VCaP cells before and after DHT treatment; settings: 100 nM DHT, 2 hrs
Procedure: FIG. 4. HDACs and EZH2 are recruited to AR binding sites. […] (B) Androgen-depleted VCaP cells were treated with either EtOH or 100 nM DHT for 2 hrs. The cells were then double crosslinked with DSG followed by formaldehyde. […] Error bars represent S.E.M of at least 3 independent experiments.
as §2
All ChIP-qPCR primer sequences can be found in FIG. 8. […] Specifically, cells were first fixed with 2 mM DSG (Pierce) for 45 minutes prior to formaldehyde fixation. […]

EZH2 = assay: Transcript levels of PSA and FKBP5 in VCaP cells after blocking EZH2 with DZNep (RT-qPCR); settings: 3 μM DZNep, 24 or 48 hrs
Procedure: (§3) FIG. 6. Co-recruitment of ERG, HDACs, and EZH2 to ARBS attenuates AR-dependent transcription. […] (C) VCaP cells grown in full serum (top) or depleted with hormones and treated with 10 nM DHT (bottom) were subjected to varying concentrations of TSA for 24 hours. Total RNA from the treated cells were then harvested and converted to cDNA before quantifying for gene expression levels by qPCR. GAPDH was used as an internal normalization control. Error bars represent S.E.M of at least 3 independent experiments. (D) VCaP cells grown in full serum (top) or depleted with hormone and treated with 10 nM DHT to 8 hours (bottom) were subjected to 3 μM DZNep treatment for 24 (top) or 48 (bottom) hrs. Total RNA was extracted and processed as described in FIG. 6C. Error bars represent S.E.M of at least 3 independent experiments.
(§4) The human prostate cancer cell line, VCaP (American Type Culture Collection), was maintained in DMEM supplemented with 10% fetal bovine serum (FBS), sodium pyruvate, sodium bicarbonate, and penicillin/streptomycin at 37° C. under 5% CO2. […]
(§5) Cells were harvested and total RNA was collected in TRI-reagent (Sigma) and purified with PureLink™ RNA Mini Kit (Invitrogen). […] RNA expression levels were measured using quantitative PCR and normalized to GAPDH. The primers for cDNA quantification can be found in FIG. 9. […]

HDACs = assay: Transcript levels of PSA and FKBP5 in VCaP cells after blocking HDACs with TSA (RT-qPCR); settings: 24 hours
Procedure: as §3, §4, §5

VCaP cells [4] = assay: Matrigel invasion assay with siRNA-treated VCaP cells; settings: silencing of VCL, 48 hrs
Procedure: (§6) FIG. 7. ERG, HDACs, and EZH2 promote cell invasiveness and inhibit epithelial differentiation by antagonizing AR-dependent transcription of cell adhesion molecules. […] Oncomine Molecular Concept Map analysis was performed to compare ERG-associated (5 kb from TSS) androgen induced genes (>2 fold) that were identified in our study against clinical prostate cancer gene signatures available in the Oncomine database. The criteria for significant associations between node is defined as OD>=2; p-value <le-4. (B) Boxplot showing the relative mRNA expression of VCL in clinical prostate samples from the Yu et al (49) study, which has been deposited in the Oncomine database. […] (G) The effect of AR and ERG silencing on VCL gene expression was analyzed as described in FIG. 3D-E. Error bars represent S.E.M of at least 3 independent experiments. (H) The effect of TSA on the androgen-dependent gene regulation of VCL was analyzed as described in FIG. 6C. […] (I) The effect of DZNep on the androgen-dependent gene regulation of VCL was analyzed as described in FIG. 6D. […] The number of cells per high power field (HPF) that passed through the transwell was counted. […] (K) The effect of VCL suppression on cancer cell survival was assessed by flow cytometry. siRNA transfected cells were fixed prior staining with propidium iodide for flow analysis. […]

VCaP cells [5] = assay: Flow cytometry of siRNA transfected VCaP cells (subG1 cell death, BrdU proliferation); settings: silencing of VCL
Procedure: as §6

## C[C@]12CCC(=O)C[C@@H]1CC[C@@H]1[C@@H]2CC[C@]2(C)[C@@H](O)CC[C@@H]12 [DHT]
VCaP cells [1]
  mRNA and protein levels of ERG: up-regulated
  time of peak ERG RNA level: 6 h
  time of peak ERG protein level: 12 h
VCaP cells [1]; across time
  AR protein level: remained relatively constant
  level of AR mRNA: repressed
VCaP cells [2]; 2 hrs
  AR binding to the enhancer AR binding site (ARBS) of PSA: recruited strongly
  ERG recruitment to the ARBS of PSA and the ERGBS associated with PLA1A: recruited
VCaP cells [2]; 18 hrs
  AR binding to the enhancer AR binding site (ARBS) of PSA: reduced significantly
  ERG recruitment to the ARBS of PSA and the ERGBS associated with PLA1A: further enhanced
VCaP cells [3]
  recruitment of HDAC1, HDAC2, HDAC3 and EZH2 to AR and ERG co-localized binding sites: in most cases enhanced

## Nc1nccc2c1ncn2[C@@H]1C=C(CO)[C@@H](O)[C@H]1O [DZNep, 3-deazaneplanocin A]
EZH2
  expression of PSA and FKBP5: enhanced

## CC(/C=C/C(=O)NO)=C\[C@@H](C)C(=O)c1ccc(N(C)C)cc1 [TSA, Trichostatin A]
HDACs; high concentrations of TSA
  PSA and FKBP5 transcript levels: repressive
HDACs; low concentrations of TSA
  PSA and FKBP5 transcript levels: enhanced

## siVCL: siRNA against VCL synthesized from 1stBase, rCrUrGrGrCrUrUrGrCrArGrArUrCrCrArArArUrUrU [SEQ ID NO.: 5] (CUGGCUUGCAGAUCCAAAUUU; RNA, backbone not given here)
VCaP cells [4]
  invasiveness of VCaP cells: increased
VCaP cells [5]
  cell death (subG1 phase): not due to differences
  cell proliferation (S phase, BrdU): not due to differences
